Measurements taken from patent US20230241071A1, “COMBINATION TREATMENT OF LIVER DISORDERS” (Terns Pharmaceuticals, Inc., priority 2021, published 2023).
“And” between values parts separate entries of the source, which are not always exact repeats. Identical values can stand only once. “Also recorded” adds a separate entry of the source.

How the values were obtained:
BCRP = molecular target: T1, BCRP (Homo sapiens, UniProt Q9UNQ0)
T1 sequence (Q9UNQ0 1-655): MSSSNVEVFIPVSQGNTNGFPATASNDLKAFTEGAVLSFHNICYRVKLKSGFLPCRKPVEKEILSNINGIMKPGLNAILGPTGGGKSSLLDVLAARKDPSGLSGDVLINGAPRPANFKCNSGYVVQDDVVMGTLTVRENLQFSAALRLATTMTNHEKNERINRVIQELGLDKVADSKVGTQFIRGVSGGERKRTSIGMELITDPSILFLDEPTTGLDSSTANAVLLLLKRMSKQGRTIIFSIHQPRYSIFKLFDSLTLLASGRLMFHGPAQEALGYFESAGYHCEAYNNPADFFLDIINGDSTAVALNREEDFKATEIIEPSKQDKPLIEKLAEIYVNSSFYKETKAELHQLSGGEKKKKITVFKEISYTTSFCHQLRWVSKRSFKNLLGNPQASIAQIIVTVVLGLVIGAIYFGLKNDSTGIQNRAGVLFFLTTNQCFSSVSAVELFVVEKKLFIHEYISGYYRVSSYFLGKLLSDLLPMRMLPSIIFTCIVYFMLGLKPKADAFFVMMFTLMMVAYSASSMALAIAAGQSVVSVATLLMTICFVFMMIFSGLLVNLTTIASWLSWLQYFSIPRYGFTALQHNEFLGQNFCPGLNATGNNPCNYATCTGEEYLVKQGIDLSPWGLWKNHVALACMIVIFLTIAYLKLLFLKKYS

DIO-GAN NASH mouse model = assay: Biopsy-confirmed DIO-GAN NASH mice, 12 weeks mono- and combination treatment; format: in vivo; conditions: for hepatomegaly (liver weight) / spleen weight / total cholesterol (plasma): vs DIO-GAN vehicle control; for plasma triglycerides: Compound 2-high 10 mg/kg, combinations; for α-SMA (IHC), marker of hepatic stellate cell activation: Compound 3, Compound 2-low and -med, Combo-low
Description: C57BL/6JRj male mice (n=138) were fed the Gubra Amylin NASH (GAN) diet (40% fat, 22% fructose, 2% cholesterol [D09100310, Research Diets]) or lean chow diet for 35 weeks before treatment start. Prior to treatment all animals underwent liver biopsy for histological confirmation (steatosis score ≥2 and fibrosis stage ≥1) and stratification using the nonalcoholic fatty liver disease (NAFLD) activity scoring (NAS) and fibrosis staging system. The diet-induced obese mice on GAN diet (DIO-GAN) were randomized to 8 treatment groups […] based on percent-area of picrosirius red (PSR) staining. DIO-GAN mice (n=16 per group) received treatment (PO, QD) for 12 weeks with vehicle (0.5% HPMC+0.2% Tween-80 in Tris buffer [50 mM, pH 8]), Compound 3 (10 mg/kg), Compound 2 (0.3 mg/kg [low], 2 mg/kg [med], or 10 mg/kg [high]), or combination treatments of Compound 3 with Compound 2 (Combo-low, Combo-med or Combo-high). Vehicle-dosed lean chow-fed controls served as healthy controls (n=10). Mice were maintained on their respective diets (GAN or lean chow) for the duration of the study. Within-subject comparisons (pre- vs. post-treatment) were performed for liver biopsy histopathological scores. Terminal quantitative endpoints included plasma/liver biochemistry, liver histomorphometry, and liver transcriptomic analysis by RNAseq.
Formalin-fixed paraffin-embedded (FFPE) liver biopsies were prepared by placing liver samples into 10% neutral buffered formalin for ˜24 hours and then transferred to 70% ethanol prior to storage at 4 C. FFPE were placed in the Histokinette to infiltrate prior to embedding in blocks. Biopsy tissues were then cut at 3 μm using a microtome and sections were mounted on slides. Liver sections were stained with Hematoxylin and Eosin (H&E) to assess steatosis, inflammation, and ballooning, and PSR to assess fibrosis. Additionally, slides were processed to detect type I collagen (Col1a1), galectin-3 (Gal-3), and smooth muscle actin (α-SMA) protein expression by immunohistochemistry (IHC). For H&E staining, slides were incubated in Mayer's Hematoxylin (Dako), washed with tap water, stained in Eosin Y solution (Sigma-Aldrich), dehydrated, and coverslipped. For PSR, slides were incubated in Weigert's iron hematoxylin (Sigma-Aldrich), washed in tap water, stained in Picro-sirius red (Sigma-Aldrich), and washed twice in acidified water. Excess water was removed by shaking the slides and the slides were then dehydrated with ethanol, cleared in xylene, and cover-slipped. The NAS and fibrosis stage were scored as described previously (Kleiner et al. 2005). NAS represents the unweighted sum of steatosis, inflammation, and ballooning scores and ranges for 0-8 (Table 26); fibrosis stage ranges from 0 (no fibrosis) to 4 (cirrhosis). For detection of Col1a1, Gal-3 and α-SMA, IHC was performed by standard procedures. Briefly, after antigen retrieval and blocking of endogenous peroxidase activity, slides were incubated with primary antibody (Col1a1: Southern Biotech, Cat. 1310-01; Gal-3: Biolegend, Cat. 125402; α-SMA: Abcam Cat. Ab124964). Primary antibody was detected using a polymeric HRP-linker antibody conjugate. Primary antibody was visualized with DAB as chromogen. Finally, sections were counterstained in hematoxylin and cover-slipped.
Terminal blood was harvested by cardiac puncture from mice anesthetized with isoflurane (2-3%), mixed with anticoagulant, and placed at 4 C prior to centrifugation at 3000×g for 10 minutes. Plasma supernatants were transferred to new tubes and immediately frozen on dry ice and stored at −80 C. Alanine transaminase (ALT), Aspartate transaminase (AST), Alkaline phosphatase (ALP), Triglycerides (TGs), Total Cholesterol (TC), High-density lipoprotein (HDL-c), and Low-density lipoprotein (LDL-c) were measured using commercial kits (Roche Diagnostics) on the Cobas c 501 autoanalyzer according to manufacturer's instructions. […]

[1] = 12 wk PO QD, Compound 3 10 mg/kg
[2] = 12 wk PO QD, high: Compound 2 10 mg/kg, alone or (Combo) + Compound 3 10 mg/kg
[3] = 12 wk PO QD, high: Compound 2 10 mg/kg, alone or (Combo) + Compound 3 10 mg/kg, 10 mg/kg
[4] = 12 wk PO QD, low: Compound 2 0.3 mg/kg, alone or (Combo) + Compound 3 10 mg/kg
[5] = 12 wk PO QD, med: Compound 2 2 mg/kg, alone or (Combo) + Compound 3 10 mg/kg
[6] = 12 wk PO QD, single agent 10 mg/kg

N#Cc1nn(-c2cc(Cl)c(Oc3n[nH]c(=O)c4ccccc34)c(Cl)c2)c(=O)[nH]c1=O [Compound 2, 2-(3,5-dichloro-4-((4-oxo-3,4-dihydrophthalazin-1-yl)oxy)phenyl)-3,5-dioxo-2,3,4,5-tetrahydro-1,2,4-triazine-6-carbonitrile]
IC50 (BCRP): 9.37 µM | hepatomegaly (liver weight) (DIO-GAN NASH mouse model; 12 wk PO QD): significantly reduced hepatomegaly | spleen weight (DIO-GAN NASH mouse model; 12 wk PO QD): without changes in spleen weight | total cholesterol (plasma) (DIO-GAN NASH mouse model; 12 wk PO QD): significantly reduced total cholesterol | ALT levels relative to DIO-GAN vehicle control (DIO-GAN NASH mouse model; 12 wk PO QD, Compound 2 low, med, and high): significantly reduced; also recorded: significantly lowered ALT levels | plasma triglycerides (DIO-GAN NASH mouse model; [1]): significantly reduced plasma triglycerides | α-SMA (IHC), marker of hepatic stellate cell activation (DIO-GAN NASH mouse model; 12 wk PO QD): Numeric reductions | Histological steatosis score: mice improving 1-pt (DIO-GAN NASH mouse model; [2]): 75% | Histological steatosis score: mice with no change (DIO-GAN NASH mouse model; [2]): 18.75% | Liver fibrosis stage: mice improving (DIO-GAN NASH mouse model; [2]): 6.25% | Liver fibrosis stage: mice with no change (DIO-GAN NASH mouse model; [2]): 68.75% | Liver fibrosis stage: mice worsening (DIO-GAN NASH mouse model; [2]): 25% | Lobular inflammation: mice improving (DIO-GAN NASH mouse model; [2]): 12.5% | Lobular inflammation: mice with no change (DIO-GAN NASH mouse model; [2]): 56.25% | Lobular inflammation: mice worsening (DIO-GAN NASH mouse model; [2]): 31.25% | NAS: mice improving 1-pt (DIO-GAN NASH mouse model; [2]): 37.5% | NAS: mice with no change (DIO-GAN NASH mouse model; [2]): 31.25% | NAS: mice worsening ≥1-pt (DIO-GAN NASH mouse model; [2]): 6.25% | Histological steatosis score: mice improving >2-pt (DIO-GAN NASH mouse model; [3]): 6.25% | Histological steatosis score: mice improving, Total (at least 1-pt) (DIO-GAN NASH mouse model; [3]): 81% and 81.25% | NAS: mice improving ≥2-pt (DIO-GAN NASH mouse model; [3]): 25% | NAS: mice improving, Total (≥1-pt) (DIO-GAN NASH mouse model; [3]): 62% and 62.5% | Histological steatosis score: mice improving 1-pt (DIO-GAN NASH mouse model; [4]): 25% | Histological steatosis score: mice improving >2-pt (DIO-GAN NASH mouse model; [4]): 6.25% | Histological steatosis score: mice improving, Total (at least 1-pt) (DIO-GAN NASH mouse model; [4]): 31% and 31.25% | Histological steatosis score: mice with no change (DIO-GAN NASH mouse model; [4]): 68.75% | Liver fibrosis stage: mice improving (DIO-GAN NASH mouse model; [4]): 6.25% | Liver fibrosis stage: mice with no change (DIO-GAN NASH mouse model; [4]): 62.5% | Liver fibrosis stage: mice worsening (DIO-GAN NASH mouse model; [4]): 31.25% | Lobular inflammation: mice improving (DIO-GAN NASH mouse model; [4]): 6.25% | Lobular inflammation: mice with no change (DIO-GAN NASH mouse model; [4]): 68.75% | Lobular inflammation: mice worsening (DIO-GAN NASH mouse model; [4]): 25% | NAS: mice improving 1-pt (DIO-GAN NASH mouse model; [4]): 31.25% | NAS: mice improving ≥2-pt (DIO-GAN NASH mouse model; [4]): 0% | NAS: mice improving, Total (≥1-pt) (DIO-GAN NASH mouse model; [4]): 31% and 31.25% | NAS: mice with no change (DIO-GAN NASH mouse model; [4]): 56.25% | NAS: mice worsening ≥1-pt (DIO-GAN NASH mouse model; [4]): 12.5% | Histological steatosis score: mice improving 1-pt (DIO-GAN NASH mouse model; [5]): 40% | Histological steatosis score: mice improving >2-pt (DIO-GAN NASH mouse model; [5]): 6.7% | Histological steatosis score: mice improving, Total (at least 1-pt) (DIO-GAN NASH mouse model; [5]): 47% and 46.7% | Histological steatosis score: mice with no change (DIO-GAN NASH mouse model; [5]): 53.33% | Liver fibrosis stage: mice improving (DIO-GAN NASH mouse model; [5]): 13.33% | Liver fibrosis stage: mice with no change (DIO-GAN NASH mouse model; [5]): 60% | Liver fibrosis stage: mice worsening (DIO-GAN NASH mouse model; [5]): 26.7% | Lobular inflammation: mice improving (DIO-GAN NASH mouse model; [5]): 6.7% | Lobular inflammation: mice with no change (DIO-GAN NASH mouse model; [5]): 73.3% | Lobular inflammation: mice worsening (DIO-GAN NASH mouse model; [5]): 20% | NAS: mice improving 1-pt (DIO-GAN NASH mouse model; [5]): 20% | NAS: mice improving ≥2-pt (DIO-GAN NASH mouse model; [5]): 7% and 6.7% | NAS: mice improving, Total (≥1-pt) (DIO-GAN NASH mouse model; [5]): 27% and 26.7% | NAS: mice with no change (DIO-GAN NASH mouse model; [5]): 73.33% | NAS: mice worsening ≥1-pt (DIO-GAN NASH mouse model; [5]): 0% | number of DEGs vs DIO-GAN vehicle control (DIO-GAN NASH mouse model; liver RNAseq, Compound 2-low (0.3 mg/kg)): 987

Cn1cc(C(=O)O)c2ccc(N3CCC(OCc4c(-c5c(Cl)cccc5Cl)noc4C4CC4)CC3)cc21 [Compound 3]
IC50 (BCRP): 4.39 µM | Gal-3 expression in the liver (IHC) relative to DIO-GAN vehicle control (DIO-GAN NASH mouse model; 12 wk PO QD): reduces expression of Galectin-3; also recorded: lower levels of Gal-3 expression | body weight during the study (DIO-GAN NASH mouse model; 12 wk PO QD): reduced body weight; also recorded: decreased body weight | hepatomegaly (liver weight) (DIO-GAN NASH mouse model; 12 wk PO QD): significantly reduced hepatomegaly | spleen weight (DIO-GAN NASH mouse model; 12 wk PO QD): without changes in spleen weight | total cholesterol (plasma) (DIO-GAN NASH mouse model; 12 wk PO QD): significantly reduced total cholesterol | Histological steatosis score: mice improving 1-pt (DIO-GAN NASH mouse model; [1]): 81.25% | Histological steatosis score: mice improving >2-pt (DIO-GAN NASH mouse model; [1]): 0% | Histological steatosis score: mice with no change (DIO-GAN NASH mouse model; [1]): 18.75% | Liver fibrosis stage: mice improving (DIO-GAN NASH mouse model; [1]): 6.25% | Liver fibrosis stage: mice with no change (DIO-GAN NASH mouse model; [1]): 56.25% | Liver fibrosis stage: mice worsening (DIO-GAN NASH mouse model; [1]): 37.5% | Lobular inflammation: mice improving (DIO-GAN NASH mouse model; [1]): 0% | Lobular inflammation: mice with no change (DIO-GAN NASH mouse model; [1]): 68.75% | Lobular inflammation: mice worsening (DIO-GAN NASH mouse model; [1]): 31.25% | plasma triglycerides (DIO-GAN NASH mouse model; [1]): significantly reduced plasma triglycerides | Histological steatosis score: mice improving, Total (at least 1-pt) (DIO-GAN NASH mouse model; 12 wk PO QD, Compound 3 10 mg/kg, 10 mg/kg): 81% and 81.25% | body weight at the end of study vs DIO-GAN vehicle control (DIO-GAN NASH mouse model; 12 wk PO QD, Compound 3 10 mg/kg, Combo = + Compound 2 0.3/2/10 mg/kg): significantly lower | α-SMA (IHC), marker of hepatic stellate cell activation (DIO-GAN NASH mouse model; 12 wk PO QD): Numeric reductions | NAS: mice improving ≥2-pt (DIO-GAN NASH mouse model; [6]): 0% | NAS: mice improving, Total (≥1-pt) (DIO-GAN NASH mouse model; [6]): 56% | fat tissue mass (EchoMRI) (DIO-GAN NASH mouse model; Week 11): significantly reduced fat tissue mass; also recorded: reduced levels of fat tissue | Scd1 expression (DIO-GAN NASH mouse model; liver RNAseq): reduced | expression of Col1a1, Acta2, Lgals3, CD146 relative to DIO-GAN vehicle control (DIO-GAN NASH mouse model; liver RNAseq): significantly reduced expression
